# PubChem BioAssay (NCI)
#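 Step 1: Grow cells in 96-well plates. Step 2: Expose to compound for 48 hours at 5 concentrations. Step 3: Interpolate endpoints linearly; if unreached, use highest concentration. GI50 is the concentration that inhibits growth by half. TGI marks complete inhibition of growth.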
# Columns and labels:
# Experiment in all cases: inhibition of tumour cell growth, NCI panel, 48 h
# SNB-75 CNS = system: SNB-75 CNS
# BT-549 breast = system: BT-549 breast
# OVCAR-8 ovarian = system: OVCAR-8 ovarian
# UACC-257 melanoma = system: UACC-257 melanoma
# UO-31 renal = system: UO-31 renal
# KM12 colon = system: KM12 colon
# EKVX NSCLC = system: EKVX NSCLC
# SK-OV-3 ovarian = system: SK-OV-3 ovarian
# NCI-H522 lung = system: NCI-H522 lung
# SR leukemia = system: SR leukemia
# COLO 205 colon = system: COLO 205 colon
# U251 CNS = system: U251 CNS
# SF-539 CNS = system: SF-539 CNS
# NCI-H460 lung = system: NCI-H460 lung
# HCC-2998 colon = system: HCC-2998 colon
# SW-620 colon = system: SW-620 colon
# OVCAR-5 ovarian = system: OVCAR-5 ovarian
# K-562 leukemia = system: K-562 leukemia
# IGROV1 ovarian = system: IGROV1 ovarian
# A549 NSCLC = system: A549 NSCLC
# SF-268 CNS = system: SF-268 CNS
# TK-10 renal = system: TK-10 renal
# HT29 colon = system: HT29 colon
# MOLT-4 leukemia = system: MOLT-4 leukemia
# HCT-116 colon = system: HCT-116 colon
# HCT-15 colon = system: HCT-15 colon
# RPMI-8226 leukemia = system: RPMI-8226 leukemia
# ACHN renal = system: ACHN renal
# LOX IMVI melanoma = system: LOX IMVI melanoma
# MDA-MB-231 breast = system: MDA-MB-231 breast
# OVCAR-4 ovarian = system: OVCAR-4 ovarian
# RXF 393 renal = system: RXF 393 renal
# HS 578T breast = system: HS 578T breast
# SF-295 CNS = system: SF-295 CNS
# OVCAR-3 ovarian = system: OVCAR-3 ovarian
# NCI-H226 lung = system: NCI-H226 lung
# DU-145 prostate = system: DU-145 prostate
# HOP-62 NSCLC = system: HOP-62 NSCLC
# SN12C renal = system: SN12C renal
# SK-MEL-2 melanoma = system: SK-MEL-2 melanoma
# HOP-92 NSCLC = system: HOP-92 NSCLC
# A498 renal = system: A498 renal
# PC-3 prostate = system: PC-3 prostate
# CAKI-1 renal = system: CAKI-1 renal
# MDA-MB-435 = system: MDA-MB-435
# SNB-19 CNS = system: SNB-19 CNS
# CCRF-CEM leukemia = system: CCRF-CEM leukemia
# UACC-62 melanoma = system: UACC-62 melanoma
# SK-MEL-28 melanoma = system: SK-MEL-28 melanoma
# SK-MEL-5 melanoma = system: SK-MEL-5 melanoma
# NCI-H23 lung = system: NCI-H23 lung
# M14 melanoma = system: M14 melanoma
# 786-0 renal = system: 786-0 renal
# NCI/ADR-RES ovarian = system: NCI/ADR-RES ovarian
# MALME-3M melanoma = system: MALME-3M melanoma
compound,measurement,setting,value
C=C1C(=O)O[C@H]2[C@H]1CC/C(COC(=O)NCCc1c[nH]c3ccc(Cl)cc13)=C\CC[C@@]1(C)O[C@@H]21,GI50,SNB-75 CNS,1330 nM
same,TGI,SNB-75 CNS,2970 nM
same,GI50,BT-549 breast,1440 nM
same,TGI,BT-549 breast,2990 nM
same,GI50,OVCAR-8 ovarian,1600 nM
same,TGI,OVCAR-8 ovarian,3.26 µM
same,GI50,UACC-257 melanoma,1720 nM
same,TGI,UACC-257 melanoma,3.19 µM
same,GI50,UO-31 renal,1310 nM
same,TGI,UO-31 renal,2590 nM
same,GI50,KM12 colon,2640 nM
same,TGI,KM12 colon,7.32 µM
same,GI50,EKVX NSCLC,1730 nM
same,TGI,EKVX NSCLC,3.53 µM
same,GI50,SK-OV-3 ovarian,13.2 µM
same,TGI,SK-OV-3 ovarian,26 µM
same,GI50,NCI-H522 lung,1690 nM
same,TGI,NCI-H522 lung,3.35 µM
same,GI50,SR leukemia,944 nM
same,TGI,SR leukemia,5.95 µM
same,GI50,COLO 205 colon,1850 nM
same,TGI,COLO 205 colon,3.59 µM
same,GI50,U251 CNS,1800 nM
same,TGI,U251 CNS,3.31 µM
same,GI50,SF-539 CNS,1750 nM
same,TGI,SF-539 CNS,3.32 µM
same,GI50,NCI-H460 lung,2200 nM
same,TGI,NCI-H460 lung,4.64 µM
same,GI50,HCC-2998 colon,1960 nM
same,TGI,HCC-2998 colon,4.03 µM
same,GI50,SW-620 colon,1820 nM
same,TGI,SW-620 colon,4.26 µM
same,GI50,OVCAR-5 ovarian,1970 nM
same,TGI,OVCAR-5 ovarian,4.19 µM
same,GI50,K-562 leukemia,1100 nM
same,TGI,K-562 leukemia,5.95 µM
same,GI50,IGROV1 ovarian,1550 nM
same,TGI,IGROV1 ovarian,3.11 µM
same,GI50,A549 NSCLC,2280 nM
same,TGI,A549 NSCLC,5.84 µM
same,GI50,SF-268 CNS,1770 nM
same,TGI,SF-268 CNS,3.37 µM
same,GI50,TK-10 renal,1590 nM
same,TGI,TK-10 renal,2970 nM
same,GI50,HT29 colon,1460 nM
same,TGI,HT29 colon,3.24 µM
same,GI50,MOLT-4 leukemia,1710 nM
same,TGI,MOLT-4 leukemia,5.27 µM
same,GI50,HCT-116 colon,1560 nM
same,TGI,HCT-116 colon,2970 nM
same,GI50,HCT-15 colon,1160 nM
same,TGI,HCT-15 colon,2660 nM
same,GI50,RPMI-8226 leukemia,1200 nM
same,TGI,RPMI-8226 leukemia,4.21 µM
same,GI50,ACHN renal,1540 nM
same,TGI,ACHN renal,2880 nM
same,GI50,LOX IMVI melanoma,1280 nM
same,TGI,LOX IMVI melanoma,2680 nM
same,GI50,MDA-MB-231 breast,1840 nM
same,TGI,MDA-MB-231 breast,3.44 µM
same,GI50,OVCAR-4 ovarian,1500 nM
same,TGI,OVCAR-4 ovarian,3.05 µM
same,GI50,RXF 393 renal,1540 nM
same,TGI,RXF 393 renal,2940 nM
same,GI50,HS 578T breast,3.21 µM
same,TGI,HS 578T breast,9.76 µM
same,GI50,SF-295 CNS,6.53 µM
same,TGI,SF-295 CNS,20.3 µM
same,GI50,OVCAR-3 ovarian,1770 nM
same,TGI,OVCAR-3 ovarian,3.83 µM
same,GI50,NCI-H226 lung,1920 nM
same,TGI,NCI-H226 lung,3.64 µM
same,GI50,DU-145 prostate,1610 nM
same,TGI,DU-145 prostate,3.25 µM
same,GI50,HOP-62 NSCLC,2180 nM
same,TGI,HOP-62 NSCLC,5.48 µM
same,GI50,SN12C renal,1640 nM
same,TGI,SN12C renal,3.17 µM
same,GI50,SK-MEL-2 melanoma,1630 nM
same,TGI,SK-MEL-2 melanoma,3.15 µM
same,GI50,HOP-92 NSCLC,1400 nM
same,TGI,HOP-92 NSCLC,2840 nM
same,GI50,A498 renal,3.39 µM
same,TGI,A498 renal,14.7 µM
same,GI50,PC-3 prostate,1720 nM
same,TGI,PC-3 prostate,3.35 µM
same,GI50,CAKI-1 renal,1480 nM
same,TGI,CAKI-1 renal,2820 nM
same,GI50,MDA-MB-435,1520 nM
same,TGI,MDA-MB-435,3 µM
same,GI50,SNB-19 CNS,3.98 µM
same,TGI,SNB-19 CNS,14.8 µM
same,GI50,CCRF-CEM leukemia,583 nM
same,TGI,CCRF-CEM leukemia,3.07 µM
same,GI50,UACC-62 melanoma,1610 nM
same,TGI,UACC-62 melanoma,3.07 µM
same,GI50,SK-MEL-28 melanoma,1790 nM
same,TGI,SK-MEL-28 melanoma,3.43 µM
same,GI50,SK-MEL-5 melanoma,1830 nM
same,TGI,SK-MEL-5 melanoma,3.33 µM
same,GI50,NCI-H23 lung,1790 nM
same,TGI,NCI-H23 lung,3.49 µM
same,GI50,M14 melanoma,1610 nM
same,TGI,M14 melanoma,3.13 µM
same,GI50,786-0 renal,1380 nM
same,TGI,786-0 renal,2790 nM
same,GI50,NCI/ADR-RES ovarian,2740 nM
same,TGI,NCI/ADR-RES ovarian,9.77 µM
same,GI50,MALME-3M melanoma,1780 nM
same,TGI,MALME-3M melanoma,3.44 µM
